In US10842806B2, “Methods for treating ocular inflammatory disorders” (Massachusetts Eye and Ear Infirmary, priority 2011, dated 2020):

System: WT BMDCs
Assay: BMDC maturation with AICAR plus adenosine kinase inhibitor or nucleoside transporter inhibitor
Format: cell-based, mice
Conditions: CD40, CD80, CD86, I-A^b by FACS
Description: FIG. 15 depicts the combined effect of AICAR and a nucleoside transporter or an adenosine kinase inhibitor on BMDC maturation. WT BMDCs were stimulated with LPS and 1 mM AICAR in the presence or absence of 0.1 mM IODO or 1 μM DPY. The number of CD11c-gated CD40, CD80, CD86 and I-A^b positive cells was measured by FACS. Bars represent mean±SD from three independent experiments. BMDCs were generated as previously described (Wang et al. (2005) IMMUNOL. LETT. 98:123-130). Briefly, bone marrow was flushed from the femurs and tibias of naive mice (6 to 8-week-old WT or AMPKα1 KO mice). The red blood cells were lysed using Red Blood Cell Lysing Buffer (Sigma). Approximately 2×10^6 cells were cultured in complete medium (RPMI 1640 medium containing 10% FBS, […], 10 mM HEPES [pH 7.4], 2 mM glutamine, 100 U/ml penicillin, and […]) including 10 ng/ml GM-CSF (Pepro Tech, London, England). Fresh media was added to the cells on day 4 of culture, and nonadherent cells and loosely adherent cells were collected as immature DCs on day 7. Immature DCs were stimulated with 100 ng/ml LPS (Salmonella typhimurium; Sigma) for 24 hours to obtain mature DCs. In some experiments, AICAR was added to the culture. […] To further study AICAR's suppressive effect, an adenosine kinase inhibitor (IODO) was used to inhibit AICAR conversion to ZMP. […]

| Effect on AICAR-mediated suppression of co-stimulatory molecule expression (1 μM DPY with LPS and 1 mM AICAR) | Effect on downregulation of co-stimulatory molecule expression by AICAR (0.1 mM IODO with LPS and 1 mM AICAR) | SMILES |
| --- | --- | --- |
| reversed | – | OCCN(CCO)c1nc(N2CCCCC2)c2nc(N(CCO)CCO)nc(N3CCCCC3)c2n1 [DPY] |
| – | did not affect | Nc1ncnc2c1c(I)cn2[C@@H]1O[C@H](CO)[C@@H](O)[C@H]1O [IODO] |
